Each structure is given as a SMILES string.

The test system of test [1] is Radical scavenging activity. As to the kind of experiment: Antioxidant activity assessed as DPPH radical scavenging activity studied at DPPH to compound ratio of 2. Format: functional. Particulars: dose or concentration not given here.
In test [2] the test system is Radical scavenging activity. As to the kind of experiment: Antioxidant activity assessed as DPPH radical scavenging activity studied at DPPH to compound ratio of 5. The class given is functional. The note with it: dose or concentration not given here. On the technique in general: The DPPH test is a chemical assay of radical scavenging.

As a reminder, the inhibition is the relative decrease from the control value, in per cent. Regarding `Cc1c(C)c2c(c(C)c1O)CCC(C)(C(=O)O)O2` (stereo unspecified), the inhibition worked out at 98% in test [1] and 79% in test [2].
The like results for `O=C(/C=C/c1ccc(O)c(O)c1)O[C@H](Cc1ccc(O)c(O)c1)C(=O)O` were, in that order, 98% and 89%.
The like results for `CC(=O)OC[C@H]1O[C@@H](Oc2cc3oc(-c4ccc(O)cc4)c(O)c(=O)c3c(O)c2O)[C@H](O)[C@@H](O)[C@@H]1O` were, in that order, 75% and 36%.
